Reference: paper PMC6403188, “Species-Specific Structural Requirements of Alpha-Branched Trehalose Diester Mincle Agonists” (Frontiers in Immunology, 2019)

Legend:
[1] = molecular target: T1, human Mincle (Homo sapiens, UniProt Q9ULY5); assay: HEK cells expressing human Mincle with NF-κB-driven SEAP reporter; format: cell-based; conditions: plate-coated compound, 24 h
T1 construct: host or cells: HEK (HEK-Blue) cells with NF-κB-driven SEAP reporter
T1 sequence (Q9ULY5 1-219): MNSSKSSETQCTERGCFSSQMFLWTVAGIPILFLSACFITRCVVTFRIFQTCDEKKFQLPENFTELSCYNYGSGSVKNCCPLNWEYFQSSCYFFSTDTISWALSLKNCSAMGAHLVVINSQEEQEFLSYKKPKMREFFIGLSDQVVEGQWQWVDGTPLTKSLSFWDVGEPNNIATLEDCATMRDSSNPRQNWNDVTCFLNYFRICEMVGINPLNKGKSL
Description: (§1) Human and mouse Mincle expressing HEK cells were obtained from Invivogen (San Diego, CA). Cells were cultured according to the manufactures instructions in DMEM with 10% FBS, 50 U/ml penicillin, […] streptomycin, […] Normocin, 2 mM L-glutamine, 30 μg/ml blasticidin, 1 μg/ml puromycin and 1x HEK-Blue™ CLR Selection. For assay, indicated compounds were serially diluted in diluent (50%IPA/50% isooctane), 20 μl of a 10x final concentration were applied to the bottom of a 96-well tissue culture plate and the solvent was evaporated for >1 h in a biosafety hood. HEK cells were applied to the plates at a density of 3 × 10^5 cells/well and incubated for 18–24 h at 37°C. Cell supernatants were harvested and analyzed via the manufacturer's instructions using Hek-Blue^TM Detection. SEAP activity was assessed by reading the optical density (OD) at 620–655 nm with a microplate reader; data are expressed as the fold change in OD over vehicle treated cells.
(§2) To investigate the capacity of these molecules to bind to and activate the Mincle receptor, we used human embryonic kidney (HEK) cells expressing the human or mouse Mincle receptor along with an NF-κB-driven secreted embryonic alkaline phosphatase (SEAP) reporter. Many of the αTDE compounds were able to induce production of SEAP in a dose dependent manner (Figure 2). HEK null cells (HEK cells containing the NF-kB reporter without Mincle receptor) were used as a negative controls to confirm the receptor specificity of the compounds in HEK cells expressing human or mouse Mincle reporter (Supplemental Figure 4). […] The relative activity of TDM and TDB in the human and mouse HEK cells is consistent with the results reported by others ([20]). […] This synthetic version is a shorter chain version of the lipid-derived one reported to be “human-specific” ([28]).
(§3) Figure 2 Activation of human or mouse Mincle in response to synthetic αTDE compounds. The indicated compounds were dissolved in 50% isopropanol/isooctane, serially diluted in vehicle and then dried to the bottom of a tissue culture plate. HEK cells transfected with human (A–C) or mouse (D–F) Mincle and an NF-κB-driven SEAP reporter were incubated with the compounds for 24 h followed by assessment of the supernatants for SEAP levels. Data are represented as fold change in OD650 over vehicle treated cells. Graphs are mean values from three independent experiments ± SEM. Table in (G) represents the average calculated EC50 and average max SEAP value (± SD, n = 3) for each compound in each cell line. […]

[2] = molecular target: T2, mouse Mincle (Mus musculus, UniProt Q9R0Q8); assay: HEK cells expressing mouse Mincle with NF-κB-driven SEAP reporter; format: cell-based
T2 construct: host or cells: HEK (HEK-Blue) cells with NF-κB-driven SEAP reporter
T2 sequence (Q9R0Q8 1-214): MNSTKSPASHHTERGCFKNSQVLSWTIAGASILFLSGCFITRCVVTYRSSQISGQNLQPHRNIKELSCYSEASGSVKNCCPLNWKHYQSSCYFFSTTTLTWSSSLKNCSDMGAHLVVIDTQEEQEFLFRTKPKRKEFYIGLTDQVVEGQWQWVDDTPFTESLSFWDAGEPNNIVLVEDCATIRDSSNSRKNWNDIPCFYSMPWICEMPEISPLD
Description: as §1, §2, §3

[3] = test system: Hek Blue human or mouse Mincle-expressing cells; format: cell-based; conditions: top concentrations, 24 h; compared with vehicle only-treated cells
[4] = test system: THP-1 cells; assay: TNFα production from THP-1 cells (ELISA); format: cell-based, human; conditions: plate-coated compound, 24 h
Description: Supernatants were harvested from treated cells following 18–24 h of incubation. Supernatants were analyzed using a DuoSet TNFα ELISA (R&D Systems, Minneapolis, MN) or Luminex multiplex panel for analytes TNFα, IL-1β, IL-6, IFNγ, IL-12p70, and IL-23 (R&D Systems) per the manufacturer's instructions. Multiplex analysis was performed using a Luminex 200 instrument (Luminex Corporation) and analyzed with StarStation2.3 software. ELISAs were read on a plate reader at 450 nm and cytokine concentration was calculated by fitting the standard curve OD values to a 4-parameter logistical model using curve fitting software (XLfit, IDBS, Alameda, CA).
Next, investigation into activity of the alpha-branched TDE compounds was extended to include both human and murine monocytic cell lines, THP-1 and RAW264.7, respectively. These cell lines have previously been reported as responsive to the Mincle receptor agonists TDM and TDB ([30], [31]).
Figure 3 TNFα production from human THP-1 cells in response to stimulation with synthetic αTDE compounds. The indicated compounds were dissolved in 50% isopropanol/isooctane, serially diluted in vehicle and then dried to the bottom of a tissue culture plate. THP-1 cells were applied to the compound-coated plates and incubated at 37°C; supernatant was harvested 24 h later and analyzed for TNFα via ELISA (A-E). Results from the 200 μg/ml concentration vs. each compounds acyl chain length are shown in (F). Data points are average of at least two independent experiments ± SD.

CCCCCCCCCCCCCCCCCCCCCC(=O)OC[C@H]1O[C@H](O[C@H]2O[C@H](COC(=O)CCCCCCCCCCCCCCCCCCCCC)[C@@H](O)[C@H](O)[C@H]2O)[C@H](O)[C@@H](O)[C@@H]1O [TDB, trehalose dibehenate, reference compound]
SEAP induction / activation of human Mincle-expressing HEK cells (in words) [1]: robust ability to activate | Relative activity in mouse vs. human Mincle HEK cells ([2]; comparison of mouse and human Mincle receptor transfected HEK cells): more potent in the mouse vs. the human | SEAP induction / activation of mouse Mincle-expressing HEK cells (in words) ([2]; plate-coated compound, 24 h): robust ability to activate | Cell viability of Mincle HEK cells [3]: marked decreases in viability | TNFα induction from THP-1 cells (in words) [4]: activity at the highest concentrations tested
